Results taken from US7138361B2, “Herbicidal heterocycles” (E. I. du Pont de Nemours and Company, priority 2000, dated 2006).

Assays:
Assay type in all cases: in vivo
[1] = system: goosegrass (Eleusine indica); test: Test C preemergence
In short: (§1)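 Pre- and postemergence treatments used a non-phytotoxic solvent/surfactant formulation; post-treated plants measured 2 to 18 cm. Greenhouse hold 12–14 d; % control estimated visually relative to controls.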

[2] = system: common ragweed (Ambrosia elatior); test: Test C preemergence
In short: as §1

[3] = system: lambsquarters (Chenopodium album); test: Test C preemergence
In short: as §1

[4] = system: Surinam grass (Brachiaria decumbens); test: Test C preemergence
In short: as §1

[5] = system: woolly cupgrass (Eriochloa villosa); test: Test C preemergence
In short: as §1

[6] = system: pigweed (Amaranthus retroflexus); test: Test C preemergence
In short: as §1

Nightshade = test: Test C preemergence
[7] = system: crabgrass (Digitaria sanguinalis); test: Test C preemergence
In short: as §1

soybean (Glycine max) = test: Test C preemergence
In short: as §1

[8] = system: cocklebur (Xanthium strumarium); test: Test C preemergence
In short: as §1

[9] = system: barnyardgrass (Echinochloa crus-galli); test: Test B preemergence; conditions: scale 0 to 100, 0 no effect, 100 complete control
In short: (§2)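 Visual injury scores, 0 = no effect to 100 = complete control, assigned against controls after 13 to 15 days in the greenhouse. Compounds formulated in non-phytotoxic solvent plus surfactant and applied to soil after planting (pre) or onto foliage of 1- to 4-leaf plants (post).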

[10] = system: velvetleaf (Abutilon theophrasti); test: Test B preemergence; conditions: Preemergence, Rate 500 g/ha; scale 0 to 100, 0 no effect, 100 complete control
In short: as §2

[11] = system: lambsquarters (Chenopodium album); test: Test B preemergence; conditions: scale 0 to 100, 0 no effect, 100 complete control
In short: as §2

corn (Zea mays) = test: Test B preemergence; conditions: scale 0 to 100, 0 no effect, 100 complete control
In short: as §2

[12] = system: Surinam grass (Brachiaria decumbens); test: Test B preemergence; conditions: scale 0 to 100, 0 no effect, 100 complete control
In short: as §2

rice (Oryza saliva) = test: Test B preemergence; conditions: Preemergence, Rate 500 g/ha; scale 0 to 100, 0 no effect, 100 complete control
In short: as §2

[13] = system: giant foxtail (Setaria faberii); test: Test B preemergence; conditions: scale 0 to 100, 0 no effect, 100 complete control
In short: as §2

[14] = system: pigweed (Amaranthus retroflexus); test: Test B preemergence; conditions: Preemergence, Rate 500 g/ha; scale 0 to 100, 0 no effect, 100 complete control
In short: as §2

[15] = system: crabgrass (Digitaria sanguinalis); test: Test B preemergence; conditions: scale 0 to 100, 0 no effect, 100 complete control
In short: as §2

[16] = system: cocklebur (Xanthium strumarium); test: Test B preemergence; conditions: Preemergence, Rate 500 g/ha; scale 0 to 100, 0 no effect, 100 complete control
In short: as §2

[17] = system: morning glory (Ipomoea hederacea); test: Test B preemergence; conditions: Preemergence, Rate 500 g/ha; scale 0 to 100, 0 no effect, 100 complete control
In short: as §2

[18] = Rate 62 g/ha, scale 0 to 100, 0 no effect, 100 complete control
[19] = preemergence, Rate 16 g/ha, scale 0 to 100
[20] = preemergence, Rate 31 g/ha, scale 0 to 100
[21] = preemergence, Rate 125 g/ha, scale 0 to 100, 0 no effect, 100 complete control

CC(C)(C)c1ccn(C2CCN(c3cccc(Cl)c3)C2=O)n1 (stereo not drawn) [Compound 43]
Plant response rating, Goosegrass [1, 18]: 50
Plant response rating, Goosegrass [1, 19]: 0
Plant response rating, Goosegrass [1, 20]: 0
Plant response rating, Goosegrass [1, 21]: 90
Plant response rating, Ragweed, Common [2, 18]: 0
Plant response rating, Ragweed, Common [2, 19]: 0
Plant response rating, Ragweed, Common [2, 20]: 0
Plant response rating, Ragweed, Common [2, 21]: 30
Plant response rating, Lambsquarters [3, 18]: 100
Plant response rating, Lambsquarters [3, 19]: 100
Plant response rating, Lambsquarters [3, 20]: 100
Plant response rating, Lambsquarters [3, 21]: 100
Plant response rating, Surinam grass [4, 18]: 0
Plant response rating, Surinam grass [4, 19]: 0
Plant response rating, Surinam grass [4, 20]: 0
Plant response rating, Surinam grass [4, 21]: 0
Plant response rating, Cupgrass, Woolly [5, 18]: 30
Plant response rating, Cupgrass, Woolly [5, 19]: 0
Plant response rating, Cupgrass, Woolly [5, 20]: 0
Plant response rating, Cupgrass, Woolly [5, 21]: 30
Plant response rating, Pigweed [6, 18]: 100
Plant response rating, Pigweed [6, 19]: 20
Plant response rating, Pigweed [6, 20]: 100
Plant response rating, Pigweed [6, 21]: 0
Plant response rating, Nightshade (Nightshade; Rate 16 g/ha, scale 0 to 100): 0
Plant response rating, Nightshade (Nightshade; Rate 31 g/ha, scale 0 to 100): 0
Plant response rating, Nightshade (Nightshade; [18]): 0
Plant response rating, Nightshade (Nightshade; Rate 125 g/ha, scale 0 to 100, 0 no effect, 100 complete control): 0
Plant response rating, Crabgrass [7, 18]: 40
Plant response rating, Crabgrass [7, 19]: 0
Plant response rating, Crabgrass [7, 20]: 20
Plant response rating, Crabgrass [7, 21]: 90
Plant response rating, Soybean (soybean (Glycine max); [18]): 0
Plant response rating, Soybean (soybean (Glycine max); [19]): 0
Plant response rating, Soybean (soybean (Glycine max); [20]): 0
Plant response rating, Soybean (soybean (Glycine max); [21]): 40
Plant response rating, Cocklebur [8, 18]: 100
Plant response rating, Cocklebur [8, 19]: 0
Plant response rating, Cocklebur [8, 20]: 20
Plant response rating, Cocklebur [8, 21]: 100
Plant response rating, Barnyardgrass ([9]; Preemergence, Rate 500 g/ha): 100
Plant response rating, Barnyardgrass ([9]; preemergence, Rate 125 g/ha): 60
Plant response rating, Velvetleaf [10]: 0
Plant response rating, Lambsquarters ([11]; Preemergence, Rate 500 g/ha): 100
Plant response rating, Lambsquarters ([11]; preemergence, Rate 125 g/ha): 100
Plant response rating, Corn (corn (Zea mays); Preemergence, Rate 500 g/ha): 0
Plant response rating, Corn (corn (Zea mays); preemergence, Rate 125 g/ha): 0
Plant response rating, Surinam grass ([12]; Preemergence, Rate 500 g/ha): 20
Plant response rating, Surinam grass ([12]; preemergence, Rate 125 g/ha): 0
Plant response rating, Rice (rice (Oryza saliva)): 70
Plant response rating, Foxtail, Giant ([13]; Preemergence, Rate 500 g/ha): 100
Plant response rating, Foxtail, Giant ([13]; preemergence, Rate 125 g/ha): 0
Plant response rating, Pigweed [14]: 100
Plant response rating, Crabgrass ([15]; Preemergence, Rate 500 g/ha): 90
Plant response rating, Crabgrass ([15]; preemergence, Rate 125 g/ha): 0
Plant response rating, Cocklebur [16]: 0
Plant response rating, Morningglory [17]: 0
